Assay results reported in paper PMC11868595, “Safety, pharmacokinetics and efficacy of HA121-28 in patients with advanced solid tumors and RET fusion-positive non-small-cell lung cancer: a multicenter, open-label, single-arm phase 1/2 trial” (Signal Transduction and Targeted Therapy, 2025).
Like-named read-outs stand apart in the source and are kept apart here. Marks after values point to notes of the source that are not given here.

Experiments:
[1] = system: RET fusion-positive NSCLC; test: Tumor response by RECIST 1.1 (ORR, DCR, DOR, PFS), phase 1/2; assay type: in vivo, human; settings: for Best response: Complete response / Best response: Not evaluable / Best response: Partial response / Best response: Progressive disease / Best response: Stable disease: ERS, investigator-assessed RECIST 1.1; for PFS: patient with previous RET-TKI treatment
Method: Treatment-emergent adverse events (TEAEs) were documented during the entire study period. The predefined adverse event of special interest (AESI) was ≥ grade 3 prolonged QT interval. Tumor imaging was performed using contrast-enhanced computed tomography or magnetic resonance imaging at screening, Day 28 of the first cycle, then approximately every eight weeks till the end of the study for phase 1; in phase 2, imaging was scheduled at screening, and every eight weeks during the first 40 weeks, followed by every 12 weeks for the rest of the study period. RECIST 1.1 was used by the independent review committee or investigators for assessment of tumor response. After the original assessment, a repeated assessment was required around four weeks later to confirm a complete or partial response.
The primary endpoints of phase 1 were to investigate the MTD, dose-limiting toxicities, and the incidence and severity of TEAEs. Each TEAE was graded according to the Common Terminology Criteria for Adverse Events (CTCAE, version 5.0) and coded by Medical Dictionary for Regulatory Activities (MedDRA, version 21.0). The secondary endpoints included calculating PK parameters, assessing the ORR and DCR at the recommended dose by investigators as per RECIST 1.1. The exploratory endpoint was PFS.
The primary endpoint of phase 2 was the independent review committee evaluated ORR using RECIST 1.1. The secondary endpoints included investigators assessed ORR; DCR, PFS, and DOR by the independent review committee and investigators; overall survival and TEAEs. Each TEAE was graded according to CTCAE version 5.0 and coded by MedDRA (version 24.0). The phase 2 trial is ongoing; not all endpoints are reported in this paper.
The full analysis set consisted of all patients who had administered at least one dose of HA121-28 and was used to calculate the baseline characteristics, OS, and PFS results. The safety set included all patients who had administered at least one dose of the HA121-28 and had at least one safety-related observation. This population was used for analysis of TEAEs. The efficacy evaluable set consisted of patients who had administered at least one dose of HA121-28 and completed at least one efficacy assessment following study treatment. This population was used to calculate the ORR, DOR, and DCR. In addition, the ORRs for subgroup analyses, including age ( < 60, ≥60), ECOG PS (0 or 1), gender (male or female), prior treatment with TKIs (yes or no), brain or liver metastasis (yes or no), were also calculated. The plasma drug concentration-time profile was characterized using PK concentration set that included patients who had administered at least one dose of HA121-28 and had at least one measurable plasma concentration of HA121-28. The PK parameter set was used to calculate PK parameters, which consisted of patients who had administered at least one dose of HA121-28 with at least one valid PK parameter. ORR and DCR were described using the Clopper-Pearson method with two-sided 95% confidence intervals (CIs). PFS and DOR were assessed using the Kaplan-Meier method, including an estimate of the median, along with corresponding 95% CIs. Statistical analyses of clinical outcomes were conducted by SAS (version 9.4 or later) and R software 4.1.0 for genomic DNA from pre-treatment tumor tissue (http://cran.r-project.org).

[2] = system: FGFR1-3; assay type: biochemical
[3] = target: FLT-1 (Homo sapiens, UniProt P17948); test: Tyrosine kinase inhibition; assay type: biochemical; settings: read-out: IC50, FLT1
Chain of FLT-1 (P17948 27-1338): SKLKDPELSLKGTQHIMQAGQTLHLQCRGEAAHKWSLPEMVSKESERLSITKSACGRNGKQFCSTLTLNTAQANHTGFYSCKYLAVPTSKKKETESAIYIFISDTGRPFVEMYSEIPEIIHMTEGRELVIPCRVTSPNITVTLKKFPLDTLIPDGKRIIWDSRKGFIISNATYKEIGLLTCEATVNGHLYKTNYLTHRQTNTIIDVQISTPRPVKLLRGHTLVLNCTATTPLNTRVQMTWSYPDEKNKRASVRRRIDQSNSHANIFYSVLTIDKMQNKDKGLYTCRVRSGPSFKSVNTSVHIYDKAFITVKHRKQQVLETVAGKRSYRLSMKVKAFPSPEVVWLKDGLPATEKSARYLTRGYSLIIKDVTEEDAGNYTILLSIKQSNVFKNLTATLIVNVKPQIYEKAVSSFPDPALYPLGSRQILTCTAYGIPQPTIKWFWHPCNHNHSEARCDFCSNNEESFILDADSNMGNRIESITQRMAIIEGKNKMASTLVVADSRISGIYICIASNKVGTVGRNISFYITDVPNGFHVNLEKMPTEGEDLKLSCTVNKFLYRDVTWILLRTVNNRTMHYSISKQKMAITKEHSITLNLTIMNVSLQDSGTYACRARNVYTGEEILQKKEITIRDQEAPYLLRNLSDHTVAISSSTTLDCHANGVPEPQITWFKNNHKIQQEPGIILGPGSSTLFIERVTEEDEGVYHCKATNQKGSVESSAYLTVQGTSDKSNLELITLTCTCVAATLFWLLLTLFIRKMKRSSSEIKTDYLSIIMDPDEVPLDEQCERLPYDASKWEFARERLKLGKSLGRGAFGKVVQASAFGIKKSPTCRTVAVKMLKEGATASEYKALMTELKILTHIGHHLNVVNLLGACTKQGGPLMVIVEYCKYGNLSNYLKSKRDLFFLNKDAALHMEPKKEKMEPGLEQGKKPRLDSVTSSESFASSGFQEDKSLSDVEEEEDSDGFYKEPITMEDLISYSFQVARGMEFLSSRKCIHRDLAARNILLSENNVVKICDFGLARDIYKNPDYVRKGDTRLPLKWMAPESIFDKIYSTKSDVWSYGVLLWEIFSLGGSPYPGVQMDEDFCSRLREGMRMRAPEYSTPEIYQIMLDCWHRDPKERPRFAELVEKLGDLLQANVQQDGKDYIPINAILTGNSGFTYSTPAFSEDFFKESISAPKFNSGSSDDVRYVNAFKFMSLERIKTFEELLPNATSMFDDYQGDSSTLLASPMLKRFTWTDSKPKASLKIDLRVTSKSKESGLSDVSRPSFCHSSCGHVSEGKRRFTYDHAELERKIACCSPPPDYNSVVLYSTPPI

[4] = system: EGFR and ERK activation; test: EGF-stimulated activation of EGFR and ERK in A431 cells; assay type: cell-based, human; settings: 10 ng/mL EGF, concentration-dependent
[5] = system: human thyroid cancer TT tumors; test: TT tumors in nude mice; assay type: in vivo; settings: for RTV ±SD / T/C / Terminal Tumor Volume: TT tumors
From the text: (§1) was higher than that of vandetanib .
as §1
Table S15. Efficacy of HA121-28 on human thyroid cancer TT tumors

[6] = system: human gastric cancer SGC-7901 tumors; test: SGC-7901 tumors in nude mice; assay type: in vivo
From the text: as §1, §1
Table S16. Efficacy of HA121-28 on human gastric cancer SGC-7901 tumors

[7] = Single-dose toxicity; assay type: in vivo, SD rats; settings: single oral gavage
Method: mg/kg. The maximum tolerated dose (MTD) was 500 mg/kg. Gastrointestinal, hepatic, and immune system toxicity may have contributed to the rat deaths.
2.2. Dose expansion phase
[…] To investigate the efficacy of HA121- 28 tablets in patients with advanced solid tumors.
This study is a single- arm, open- label, dose-escalation, and dose-expansion phase 1 clinical studywith single and multiple dosing.

[8] = 28-day repeated dose toxicity; assay type: in vivo, SD rats
[9] = Ames test; settings: in vitro Ames test
[10] = target: AXL (Homo sapiens, UniProt P30530); test: Tyrosine kinase inhibition; assay type: biochemical
Chain of AXL (P30530 26-894): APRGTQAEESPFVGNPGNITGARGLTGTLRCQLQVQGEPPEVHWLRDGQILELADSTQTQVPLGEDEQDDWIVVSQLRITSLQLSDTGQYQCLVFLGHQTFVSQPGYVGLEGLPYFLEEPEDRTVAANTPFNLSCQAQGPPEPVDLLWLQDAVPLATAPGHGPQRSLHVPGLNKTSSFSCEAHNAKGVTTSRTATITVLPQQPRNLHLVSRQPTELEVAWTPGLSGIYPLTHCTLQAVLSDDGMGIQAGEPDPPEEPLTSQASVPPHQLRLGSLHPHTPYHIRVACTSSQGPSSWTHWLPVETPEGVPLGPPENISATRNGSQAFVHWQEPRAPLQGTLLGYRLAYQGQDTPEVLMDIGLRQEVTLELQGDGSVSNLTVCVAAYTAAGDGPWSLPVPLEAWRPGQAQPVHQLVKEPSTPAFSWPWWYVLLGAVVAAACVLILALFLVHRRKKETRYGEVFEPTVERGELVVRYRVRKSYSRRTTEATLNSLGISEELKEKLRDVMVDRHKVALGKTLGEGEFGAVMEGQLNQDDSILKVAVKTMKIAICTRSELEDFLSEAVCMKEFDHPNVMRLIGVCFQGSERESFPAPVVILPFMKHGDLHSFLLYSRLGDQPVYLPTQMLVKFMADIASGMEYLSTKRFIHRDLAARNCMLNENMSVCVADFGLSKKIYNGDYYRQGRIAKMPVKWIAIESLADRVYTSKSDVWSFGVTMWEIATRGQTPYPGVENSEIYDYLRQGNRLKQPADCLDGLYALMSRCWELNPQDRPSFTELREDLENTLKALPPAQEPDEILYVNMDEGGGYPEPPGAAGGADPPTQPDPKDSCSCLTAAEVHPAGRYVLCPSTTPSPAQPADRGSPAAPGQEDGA

[11] = RET fusion-positive NSCLC, ≥450 mg q.d.

## COc1cc2c(Nc3ccc(Br)cc3F)ncnc2cc1OCCCCN(C)C.Cl.Cl [HA121-28, N-(4-bromo-2-fluorophenyl)-7-(4-(dimethylamino)butoxy)-6-methoxy quinazolin-4-amine dihydrochloride]
[1]; 73 patients with non-RET fusion tumors, phase 1 dose expansion
  tumor response: no response
[1]; 97 RET fusion-positive NSCLC patients, ≥450 mg q.d.
  confirmed ORR (investigator-assessed): 26.8%
[1]; All (N=97)
  Best response: Complete response: 0 No. (%)
  Best response: Not evaluable: 4 (4.1) No. (%)
  Best response: Partial response: 26 (26.8) No. (%)
  Best response: Progressive disease: 23 (23.7) No. (%)
  Best response: Stable disease: 44 (45.4) No. (%)
[1]; CCDC6 (N=15)
  Best response: Complete response: 0 No. (%)
  Best response: Not evaluable: 1 (6.7) No. (%)
  Best response: Partial response: 7 (46.7) No. (%)
  Best response: Progressive disease: 1 (6.7) No. (%)
  Best response: Stable disease: 6 (40.0) No. (%)
[1]; CCDC6-RET fusion patients
  confirmed ORR: 46.7%
  median DOR: 14.0 months
  median PFS: 14.9 months
[1]; KIF5B (N=71)
  Best response: Complete response: 0 No. (%)
  Best response: Not evaluable: 2 (2.8) No. (%)
  Best response: Partial response: 18 (25.4) No. (%)
  Best response: Progressive disease: 21 (29.6) No. (%)
  Best response: Stable disease: 30 (42.3) No. (%)
[1]; KIF5B-RET fusion patients
  confirmed ORR: 25.4%
  median DOR: 7.7 months
  median PFS: 5.5 months
[1]; Other (N=11)
  Best response: Complete response: 0 No. (%)
  Best response: Not evaluable: 1 (9.1) No. (%)
  Best response: Partial response: 1 (9.1) No. (%)
  Best response: Progressive disease: 1 (9.1) No. (%)
  Best response: Stable disease: 8 (72.7) No. (%)
[1]; RET fusion-positive NSCLC (66 of 97)
  patients with shrinkage in tumor size: 68.0%
[1]; [11]
  DCR: 72.2%
  median PFS: 5.5 months
[1]; TP53 wild-type group (5 out of 15)
  patients with partial response: 33.3%
[1]; concurrent TP53 mutation (1 out of 11)
  patients with partial response: 9.1%
[1]; SD, dosing 176 days
  PFS: 5.52 months
[1]; confirmed PR, dosing 167 days
  PFS: 5.36 months
[1]; phase 1, advanced RET fusion NSCLC with at least one efficacy evaluation, as of April 28, 2021
  patients with partial response: 7 of 17
[1]; subgroup ECOG PS of 0
  ORR: 35.5%
[1]; subgroup age < 60
  ORR: 30.9%
[1]; subgroup with liver metastasis
  ORR: 37.5%
[2]; FGFR1, read-out: IC50, FGFR1
  IC50: 32.3 nM
[2]; FGFR2, read-out: IC50, FGFR2
  IC50: 20.4 nM
[2]; FGFR3, read-out: IC50, FGFR3
  IC50: 23.1 nM
[3]
  IC50: 20.9 nM
[4]
  activation of EGFR and downstream ERK: significantly inhibited
[5]; 50 mg/kg
  in vivo anti-tumor effect: tumor shrinkage was observed
  RTV ±SD: 0.8±0.2
  T/C: 13.6%
  Terminal Tumor Volume: 131.9±66.5** mm^3
[5]; 25 mg/kg
  RTV ±SD: 2.1±0.6
  T/C: 33.8%
  Terminal Tumor Volume: 307.4±69.5** mm^3
[5]; 75 mg/kg
  RTV ±SD: 0.5±0.2
  T/C: 8.7%
  Terminal Tumor Volume: 86.9±40.0** mm^3
[6]; 25 mg/kg
  RTV ±SD: 7.2±1.0
  T/C: 45.3%
  Terminal Tumor Volume: 1424.3±410.0** mm^3
[6]; 50 mg/kg
  RTV ±SD: 2.0±1.1
  T/C: 12.8%
  Terminal Tumor Volume: 478.5±307.8** mm^3
[6]; 75 mg/kg
  RTV ±SD: 1.2±0.3
  T/C: 7.6%
  Terminal Tumor Volume: 288.9±162.6** mm^3
[7]
  maximum tolerated dose (MTD): 500 mg/kg
[8]; 28-day, SD rats
  no observed adverse effect level (NOAEL): 15 mg/kg
[8]; oral gavage, four consecutive weeks
  highest non-severely toxic dose (HNSTD): 15 mg/kg
[9]
  genetic toxicity: negative
[10]
  IC50: 589 nM
